This passage reports IC50 results from patent US11512053B2, “Arginine methyltransferase inhibitors and uses thereof” (priority 2013, dated 2022).

Like-named read-outs stand apart in the source and are kept apart here.

This assay deals with T1, full-length human PRMT3 isoform 1 (GST-tagged) (Homo sapiens, UniProt O60678).
T1 construct: GST-tagged PRMT3; made in house; host or cells: E. coli BL21(DE3) Gold
Put plainly: PRMT3 Biochemical Assay (3H-SAM Flashplate, peptide substrate). From the text: General Materials. S-adenosylmethionine (SAM), S-adenosylhomocysteine (SAH), bicine, Tween20, dimethylsulfoxide (DMSO), bovine skin gelatin (BSG),), isopropyl-β-D-thiogalactopyranoside (IPTG), and Tris(2-carboxyethyl)phosphine hydrochloride solution (TCEP) were purchased from Sigma-Aldrich at the highest level of purity possible. ^3H-SAM was purchase from American Radiolabeled Chemicals with a specific activity of 80 Ci/mmol. 384-well streptavidin Flashplates were purchased from PerkinElmer.
Substrates. Peptide containing the classic RMT substrate motif was synthesized with an N-terminal linker-affinity tag motif and a C-terminal amide cap by 21st Century Biochemicals. The peptide was purified by high-performance liquid chromatography (HPLC) to greater than 95% purity and confirmed by liquid chromatography mass spectrometry (LC-MS). The sequence was Biot-Ahx-[…]-amide (SEQ ID NO.:11).
Molecular Biology: Full-length human PRMT3 (NM_005788.3) isoform 1 transcript clone was amplified from an HEK 293 cDNA library and subcloned into pGEX-KG (GE Life Sciences). The resulting construct encodes an N-terminal GST tag and a thrombin cleavage sequence ([…] […] […] […] S) (SEQ ID NO.:12) fused directly to Cys 2 of PRMT3.
Protein Expression. E. coli (BL21(DE3) Gold, Stratagene) made competent by the CaCl2) method were transformed with the PRMT3 construct and ampicillin selection. Protein over-expression was accomplished by growing the PRMT3 expressing E. coli clone and inducing expression with 0.3 mM IPTG at 16° C. The culture was grown for 12 hours, harvested by centrifugation, and stored at −80° C. for purification.
Protein Purification. […] GST-tagged PRMT3 was eluted with 50 mM Tris, 2 mM glutathione, pH 7.1 and 50 mM Tris, 20 mM glutathione, pH 7.1. Pooled fractions were dialysed in 20 mM Tris, 50 mM NaCl, 5% glycerol, 1 mM EDTA, 1 mM DTT, pH7.5 (Buffer B) and applied to a Q Sepharose Fast Flow column. GST-tagged PRMT3 was eluted by 500 mM NaCl in buffer B. Pooled fractions were dialyzed in 25 mM phosphate buffer, 100 mM NaCl, 5% glycerol, 2 mM DTT, pH 6.8 (Buffer C) and loaded on to a ceramic hydroxyapatite column. GST-tagged PRMT3 eluted with 25-400 mM phosphate in buffer C. Protein was concentrated and buffer was exchanged to 20 mM Tris, 150 mM NaCl, 5% glycerol, 5 mM β-mercaptoethanol, pH7.8 by ultrafiltration. The purity of recovered protein was 70%.
General Procedure for PRMT3 Enzyme Assays on Peptide Substrates. The assays were all performed in a buffer consisting of 20 mM Bicine (pH=7.6), 1 mM TCEP, 0.005% BSG, and 0.002% Tween 20, prepared on the day of use. Compounds in 100% DMSO (1 ul) were spotted into a polypropylene 384-well V-bottom plates (Greiner) using a Platemate Plus outfitted with a 384-channel head (Thermo Scientific). DMSO (1 ul) was added to Columns 11, 12, 23, 24, rows A-H for the maximum signal control and 1 ul of SAH, a known product and inhibitor of PRMT3, was added to columns 11, 12, 23, 24, rows I-P for the minimum signal control. A cocktail (40 ul) containing the PRMT3 enzyme was added by Multidrop Combi (Thermo-Fisher). The compounds were allowed to incubate with PRMT3 for 30 min at room temperature, then a cocktail (10 ul) containing SAM and peptide was added to initiate the reaction (final volume=51 ul). The final concentrations of the components were as follows: PRMT3 was 0.5 nM, ^3H-SAM was 100 nM, non-radiolabeled SAM was 1.8 uM, peptide was 330 nM, SAH in the minimum signal control wells was 1 mM, and the DMSO concentration was 2%. The assays were stopped by the addition of potassium chloride (10 ul) to a final concentration of 100 mM. 50 ul of the reaction in the 384-well polypropylene plate was then transferred to a 384-well Flashplate and the biotinylated peptides were allowed to bind to the streptavidin surface for at least 1 hour before being washed once with 0.1% Tween20 in a Biotek ELx405 plate washer. […]

Where [1] appears, read: single experiment or average of multiple experiments.

T1 sequence (O60678 with tags, fused parts or gaps): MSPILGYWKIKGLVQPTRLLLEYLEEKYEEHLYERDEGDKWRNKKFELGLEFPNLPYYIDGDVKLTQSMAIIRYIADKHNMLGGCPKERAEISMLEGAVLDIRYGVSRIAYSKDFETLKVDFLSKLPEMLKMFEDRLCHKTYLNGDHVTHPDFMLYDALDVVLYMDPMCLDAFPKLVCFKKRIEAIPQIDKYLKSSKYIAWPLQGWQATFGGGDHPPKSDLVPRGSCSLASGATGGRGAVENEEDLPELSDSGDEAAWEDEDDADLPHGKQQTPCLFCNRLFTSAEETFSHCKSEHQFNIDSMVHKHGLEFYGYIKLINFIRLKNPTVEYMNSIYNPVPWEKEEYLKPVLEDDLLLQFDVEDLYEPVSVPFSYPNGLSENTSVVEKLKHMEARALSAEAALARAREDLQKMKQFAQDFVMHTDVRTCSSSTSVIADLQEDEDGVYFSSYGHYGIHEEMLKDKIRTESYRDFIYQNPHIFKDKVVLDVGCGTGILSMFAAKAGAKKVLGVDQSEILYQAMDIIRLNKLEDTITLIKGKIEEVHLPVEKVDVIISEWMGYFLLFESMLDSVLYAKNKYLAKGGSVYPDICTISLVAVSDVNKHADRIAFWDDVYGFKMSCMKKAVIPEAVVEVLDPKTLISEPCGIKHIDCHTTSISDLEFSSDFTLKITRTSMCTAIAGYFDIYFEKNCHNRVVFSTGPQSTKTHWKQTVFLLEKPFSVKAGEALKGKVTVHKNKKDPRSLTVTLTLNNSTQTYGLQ

What is called IC50 is the concentration that gives 50% inhibition. The low end stands for greater potency in that assay, the high end for weaker potency in that assay. With `CNCCN(C)Cc1c[nH]nc1C#Cc1cccc(OC)c1` [Compound 1], the IC50 under setting [1] worked out at 6.83 µM.

On to `CNCCN(C)Cc1c[nH]nc1C#Cc1ccc(C(C)(C)C)cc1` [Compound 2], for which 3 µM corresponded to half-maximal inhibition under setting [1] (IC50).

Turning to `CNCCN(C)Cc1c[nH]nc1C#Cc1ccc(F)cc1` [Compound 4], the IC50 was greater than 10 µM. Moreover, the IC50 under setting [1] was greater than 10 µM.

As for `CNCCN(C)Cc1c[nH]nc1/C=C/c1ccc(-c2ccccc2)cc1` [Compound 5], the IC50 under setting [1] was determined as 1.45 µM.

For `CNCCN(C)Cc1c[nH]nc1/C=C/c1ccc(C(F)(F)F)cc1` [Compound 6], inhibition under setting [1] was half-maximal at 3.94 µM (IC50).

Regarding `CNCCN(C)Cc1c[nH]nc1/C=C/c1ccc(OC)cc1` [Compound 7], under setting [1], half-maximal inhibition (IC50) was put at 5.91 µM.

Consider `Cc1ccc(/C=C/c2n[nH]cc2CN(C)CCN)cc1` [Compound 8], for which it took 5.81 µM to reach half-maximal inhibition under setting [1] (IC50).

With `CN(CCN)Cc1c[nH]nc1C1=CCOCC1` [Compound 10], the IC50 is greater than 10 µM. This molecule displayed an IC50 under setting [1] greater than 10 µM.

In turn, `COc1cc(/C=C/c2n[nH]cc2CN(C)CCN)cc(OC)c1` [Compound 11] showed a concentration for half-maximal inhibition (IC50) under setting [1] of 1.58 µM.

In turn, `CN(CCN)Cc1c[nH]nc1C1CC1` [Compound 12] came in with a concentration for half-maximal inhibition (IC50) greater than 10 µM. Under setting [1], this molecule yielded an IC50 greater than 10 µM.

Under setting [1], `CN(CCN)Cc1c[nH]nc1/C=C/c1ccc(F)cc1F` [Compound 13] displayed an IC50 of 3.62 µM. That is a single-digit micromolar value.

Turning to `CN(CCN)Cc1c[nH]nc1/C=C/c1cc(C(F)(F)F)cc(C(F)(F)F)c1` [Compound 14], under setting [1], the IC50 was found to be 6.77 µM.

As for `CN(CCN)Cc1c[nH]nc1/C=C/c1cc(F)cc(F)c1` [Compound 15], inhibition under setting [1] was half-maximal at 2.34 µM (IC50).

`CN(CCN)Cc1c[nH]nc1/C=C/c1cccc(C(F)(F)F)c1` [Compound 16]: the IC50 under setting [1] was determined as 5.79 µM. Against the preceding molecule, the IC50 is about 2.5-fold higher.

Under setting [1], `COc1cccc(/C=C/c2n[nH]cc2CN(C)CCN)c1` [Compound 17] showed a concentration for half-maximal inhibition (IC50) of 2.36 µM.

`CN(CCN)Cc1c[nH]nc1/C=C/c1ccc(C(F)(F)F)cc1` [Compound 18] yielded an IC50 under setting [1] of 1.75 µM.

Consider `COC/C=C/c1n[nH]cc1CN(C)CCN` [Compound 19], for which 7.74 µM corresponded to half-maximal inhibition under setting [1] (IC50).

For `CN(CCN)Cc1c[nH]nc1/C=C/c1cccc(F)c1` [Compound 20], the half-inhibitory concentration (IC50) under setting [1] was 2.34 µM.

On to `CC(C)c1n[nH]cc1CN(C)CCN` [Compound 21], for which the half-maximal inhibitory concentration (IC50) is greater than 10 µM. Moreover, under setting [1], the IC50 is greater than 10 µM.

Molecule `CN(CCN)Cc1c[nH]nc1C1CCCCC1` [Compound 22] showed an IC50 under setting [1] of 6.46 µM.

With `CN(CCN)Cc1c[nH]nc1CCc1ccc(F)cc1` [Compound 23, N^1-((3-(4-fluorophenethyl)-1H-pyrazol-4-yl)methyl)-N^1-methylethane-1,2-diamine], 9.65 µM corresponded to half-maximal inhibition under setting [1] (IC50).

The molecule `CN(CCN)Cc1c[nH]nc1/C=C/Cc1ccccc1` [Compound 24] yielded an IC50 greater than 10 µM. Moreover, the IC50 under setting [1] is greater than 10 µM.
